Measured values reported in ChEMBL document CHEMBL1156106 (J Med Chem, 2009).

Legend:
[1] = system: Mus musculus; assay: Antidepressant activity in ip dosed mouse assessed as stimulation of locomotor activity; assay type: functional
[2] = system: Mus musculus; assay: Antidepressant activity in ip dosed mouse assessed as stimulation of locomotor activity relative to cocaine; assay type: functional
[3] = system: Mus musculus; assay: Antidepressant activity in ip dosed mouse assessed as time to reach peak stimulation of locomotor activity; assay type: functional
[4] = system: Mus musculus; assay: Antidepressant activity in ip dosed mouse assessed as duration of locomotor activity; assay type: functional
[5] = molecular target: Sodium-dependent dopamine transporter (Homo sapiens, UniProt Q01959); assay: Displacement of [125I]RTI55 from cloned human DAT expressed in HEK293 cells; assay type: cell-based
Sequence of Sodium-dependent dopamine transporter (Q01959 whole entry): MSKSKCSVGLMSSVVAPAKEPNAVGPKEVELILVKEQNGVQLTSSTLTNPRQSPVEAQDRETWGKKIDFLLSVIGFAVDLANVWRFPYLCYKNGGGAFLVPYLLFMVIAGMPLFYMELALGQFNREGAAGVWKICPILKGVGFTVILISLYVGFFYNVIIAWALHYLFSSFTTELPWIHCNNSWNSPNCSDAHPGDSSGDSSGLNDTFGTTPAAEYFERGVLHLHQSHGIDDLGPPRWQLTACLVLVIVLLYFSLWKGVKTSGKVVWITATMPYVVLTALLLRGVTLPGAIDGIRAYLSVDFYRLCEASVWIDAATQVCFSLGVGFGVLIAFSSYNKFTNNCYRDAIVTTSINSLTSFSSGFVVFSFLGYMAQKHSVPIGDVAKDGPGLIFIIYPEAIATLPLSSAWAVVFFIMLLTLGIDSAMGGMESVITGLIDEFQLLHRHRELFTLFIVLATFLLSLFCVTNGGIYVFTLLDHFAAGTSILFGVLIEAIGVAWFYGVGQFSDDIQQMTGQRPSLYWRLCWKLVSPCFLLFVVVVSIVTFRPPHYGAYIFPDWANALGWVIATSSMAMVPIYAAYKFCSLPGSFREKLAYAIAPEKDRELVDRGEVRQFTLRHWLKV

[6] = molecular target: T1, Sodium-dependent serotonin transporter (Homo sapiens, UniProt P31645); assay: biochemical; assay type: cell-based, HEK293
T1 sequence (P31645 whole entry): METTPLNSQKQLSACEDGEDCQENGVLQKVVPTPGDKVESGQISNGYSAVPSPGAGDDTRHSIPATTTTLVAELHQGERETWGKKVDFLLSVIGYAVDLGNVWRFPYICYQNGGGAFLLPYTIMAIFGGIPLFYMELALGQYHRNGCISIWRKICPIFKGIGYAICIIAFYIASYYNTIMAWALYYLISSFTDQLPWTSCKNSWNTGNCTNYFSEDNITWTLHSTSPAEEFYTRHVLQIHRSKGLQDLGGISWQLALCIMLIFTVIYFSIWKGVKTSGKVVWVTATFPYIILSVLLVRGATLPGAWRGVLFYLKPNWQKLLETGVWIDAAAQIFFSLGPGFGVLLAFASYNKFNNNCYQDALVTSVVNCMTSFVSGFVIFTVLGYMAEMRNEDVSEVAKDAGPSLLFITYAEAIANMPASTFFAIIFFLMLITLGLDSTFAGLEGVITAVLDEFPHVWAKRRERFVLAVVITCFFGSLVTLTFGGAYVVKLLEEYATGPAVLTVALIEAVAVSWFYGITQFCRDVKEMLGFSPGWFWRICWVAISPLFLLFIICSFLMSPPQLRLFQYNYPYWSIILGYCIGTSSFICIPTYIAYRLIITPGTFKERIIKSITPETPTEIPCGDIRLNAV

[7] = molecular target: Sodium-dependent noradrenaline transporter (Homo sapiens, UniProt P23975); assay: Displacement of [125I]RTI55 from cloned human NET expressed in HEK293 cells; assay type: cell-based
Sequence of Sodium-dependent noradrenaline transporter (P23975 whole entry): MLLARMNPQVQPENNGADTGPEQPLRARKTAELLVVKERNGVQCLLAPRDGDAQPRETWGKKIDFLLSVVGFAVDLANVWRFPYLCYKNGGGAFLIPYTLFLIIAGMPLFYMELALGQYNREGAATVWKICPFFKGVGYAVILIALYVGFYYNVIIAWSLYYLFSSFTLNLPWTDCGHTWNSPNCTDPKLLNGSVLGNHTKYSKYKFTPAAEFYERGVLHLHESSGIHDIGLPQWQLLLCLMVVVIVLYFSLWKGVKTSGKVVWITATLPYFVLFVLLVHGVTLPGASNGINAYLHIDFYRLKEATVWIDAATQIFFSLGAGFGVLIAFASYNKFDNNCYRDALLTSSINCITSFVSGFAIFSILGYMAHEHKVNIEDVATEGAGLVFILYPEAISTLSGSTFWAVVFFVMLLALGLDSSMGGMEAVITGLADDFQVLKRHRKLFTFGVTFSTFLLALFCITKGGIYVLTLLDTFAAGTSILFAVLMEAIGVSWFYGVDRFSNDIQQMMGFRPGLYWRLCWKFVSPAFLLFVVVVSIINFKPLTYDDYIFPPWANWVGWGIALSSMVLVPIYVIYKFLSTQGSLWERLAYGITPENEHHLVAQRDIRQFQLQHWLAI

[8] = system: Rattus norvegicus; assay: Effect on behavioural activity in ip dosed rat assessed as cocaine-induced lever response pretreated with cocaine by drug-discrimination studies; assay type: functional
[9] = system: Rattus norvegicus; assay: Effect on behavioural activity in rat assessed as cocaine-induced lever response at 2.5 mg/kg, ip pretreated with cocaine for 15 mins by drug-discrimination studies; assay type: functional; conditions: route intraperitoneal
[10] = system: Rattus norvegicus; assay: Effect on behavioural activity in rat assessed as cocaine-induced lever response at 5 mg/kg, ip pretreated with cocaine for 15 mins by drug-discrimination studies; assay type: functional; conditions: route intraperitoneal
[11] = system: Rattus norvegicus; assay: Effect on behavioural activity in rat assessed as cocaine-induced lever response at 10 mg/kg, ip pretreated with cocaine for 15 mins by drug-discrimination studies; assay type: functional; conditions: route intraperitoneal
[12] = system: Rattus norvegicus; assay: Effect on behavioural activity in rat assessed as cocaine-induced lever response at 25 mg/kg, ip pretreated with cocaine for 15 mins by drug-discrimination studies; assay type: functional; conditions: route intraperitoneal
[13] = molecular target: T1, Sodium-dependent serotonin transporter; assay: Inhibition of [3H]serotonin reuptake at human SERT expressed in HEK293 cells; assay type: cell-based
[14] = system: Rattus norvegicus; assay: Effect on behavioural activity in rat assessed as cocaine-induced lever response at 50 mg/kg, ip pretreated with cocaine for 15 mins by drug-discrimination studies; assay type: functional; conditions: route intraperitoneal

Row | Structure (SMILES) | ED50 [1] | Activity [2] | Time to peak locomotor stimulation [3] | Time [4] | Ki [5] | Ki [6] | Ki [7] | ED50 [8] | Activity [9] | Activity [10] | Activity [11] | Activity [12] | IC50 [13] | Activity [14]
1 | Cc1ccc(C(=O)C(C)NC(C)(C)C)cc1Cl (configuration not stated) | ≥ 35.5 mg/kg | >=77% | 10 min | 60 min | – | – | – | – | – | – | – | – | – | –
2 | CC1C(=O)c2cc(Cl)ccc2CN1C(C)(C)C (configuration not stated) | – | – | – | – | > 10 µM | > 10 µM | > 10 µM | – | – | – | – | – | – | –
3 | CCN(CC)C(C)C(=O)c1cccc(Cl)c1 (configuration not stated) | – | 90% | 20 min | 130 min | – | > 10 µM | – | 3.2 mg/kg | 0% | 16.7% | 98.6% | 74.8% | – | –
4 | CCCNC(C)C(=O)c1cccc(Cl)c1 (configuration not stated) | – | – | – | – | > 10 µM | > 10 µM | > 10 µM | – | – | – | – | – | – | –
5 | CC(NC(C)(C)C)C(O)c1ccccc1 (racemic) | – | 41% | 150 min | 390 min | > 10 µM | 4 µM | > 10 µM | – | – | – | – | – | 1.24 µM | –
6 | CC(C(=O)c1cccc(Cl)c1)N(C)C(C)(C)C (configuration not stated) | 11.7 mg/kg | 95% | 80 min | 200 min | – | > 10 µM | > 10 µM | – | – | – | 49.4% | 75% | – | 66.7%
7 | COC(=O)[C@H]1[C@@H](OC(=O)c2ccccc2)C[C@@H]2CC[C@H]1N2C [COCAINE] | 7.8 mg/kg | – | 0 min | 40 min | – | – | – | 5.9 mg/kg | – | – | – | – | – | –
8 | CC(NC(C)(C)C)C(=O)c1cc(Cl)cc(Cl)c1 (configuration not stated) | – | – | – | – | > 10 µM | > 10 µM | > 10 µM | – | – | – | – | – | – | –
